Measured values from patent publication US20100297025A1, “Novel compositions magnetic particles covered with gem-bisphosphonate derivatives” (Guerbet., priority 2002, published 2010).

How the values were obtained:
human MMP-3 = biological target: T1, human MMP-3 (Homo sapiens, UniProt P08254); assay: Inhibitory effect on human MMP-3 activity, fluorimetry; type: biochemical; conditions: MMP-3, reference product
T1 construct: host or cells: sF9 (insect) cell line
Description: More precisely, the test product, or the reference product or water, was added to a buffer solution, at pH=6, containing 6 nM of MMP-3. The fluorescence of this medium was evaluated at λex=340 nm and λem=405 nm by means of a plate reader (GeminiXS, Molecular Devices), after preincubation for 30 min at 37° C. (t=0). This measurement at t=0 serves to verify any possible interference of a product with the fluorescent detection. The enzyme reaction was then initiated by adding 10 μm of the substrate NFF-2. After incubation for 90 min at 37° C., the fluorescence was again evaluated under the same conditions as previously (t=90 min). The enzyme activity was then determined by subtracting the signal measured at t=0 from the signal measured at t=90 min.
The final result is expressed as percentage inhibition of the enzyme activity.

[1] = biological target: T2, folate binding protein (FBP) (Bos taurus, UniProt P02702); assay: Affinity for Folate Binding Protein (FBP) by the BiaCore technique; conditions: immobilized FBP
T2 construct: purchased Sigma F-0504
Description: 1/ Assay for Affinity of Example 17 for Folate Binding Protein (FBP) by the BiaCore Technique
PGM buffer: 100 mM KH2PO4, pH 7, 10% glycerol and 4 mM β-mercaptoethanol.
The immobilization of the FBP was carried out at 1 mg/ml in the PGM buffer according to the protocols recommended by BIAcore for coupling to amines. After this, the remaining active carboxylated groups are saturated with 1M of ethanolamine pH=8. The amount of FBP attached corresponds approximately to 1.5 ng/mm^2.
Example 17 was at a concentration of 0.170 mol/L of iron, which corresponds to 1.9×10^−5 mol of particles/L (considering a crystal of 7.5 nm, i.e. 8900 atoms of iron/particle).
The attachment of the folate was followed at four different concentrations (125, 250, 500 and 1000 μM) whereas that of example 17 was carried out at […] and at 10 nM (expressed as mol of particle/L). The association and the dissociation were studied with a flow at 25 μl/min. The association and dissociation phases are 5 minutes.

αvβ5 = αvβ5 (Homo sapiens, UniProt P06756+P18084); conditions: cited from earlier work
α5β1 = α5β1 (Homo sapiens, UniProt P05556+P08648); conditions: cited from earlier work
Sequence of α5β1 (P08648 42-1049): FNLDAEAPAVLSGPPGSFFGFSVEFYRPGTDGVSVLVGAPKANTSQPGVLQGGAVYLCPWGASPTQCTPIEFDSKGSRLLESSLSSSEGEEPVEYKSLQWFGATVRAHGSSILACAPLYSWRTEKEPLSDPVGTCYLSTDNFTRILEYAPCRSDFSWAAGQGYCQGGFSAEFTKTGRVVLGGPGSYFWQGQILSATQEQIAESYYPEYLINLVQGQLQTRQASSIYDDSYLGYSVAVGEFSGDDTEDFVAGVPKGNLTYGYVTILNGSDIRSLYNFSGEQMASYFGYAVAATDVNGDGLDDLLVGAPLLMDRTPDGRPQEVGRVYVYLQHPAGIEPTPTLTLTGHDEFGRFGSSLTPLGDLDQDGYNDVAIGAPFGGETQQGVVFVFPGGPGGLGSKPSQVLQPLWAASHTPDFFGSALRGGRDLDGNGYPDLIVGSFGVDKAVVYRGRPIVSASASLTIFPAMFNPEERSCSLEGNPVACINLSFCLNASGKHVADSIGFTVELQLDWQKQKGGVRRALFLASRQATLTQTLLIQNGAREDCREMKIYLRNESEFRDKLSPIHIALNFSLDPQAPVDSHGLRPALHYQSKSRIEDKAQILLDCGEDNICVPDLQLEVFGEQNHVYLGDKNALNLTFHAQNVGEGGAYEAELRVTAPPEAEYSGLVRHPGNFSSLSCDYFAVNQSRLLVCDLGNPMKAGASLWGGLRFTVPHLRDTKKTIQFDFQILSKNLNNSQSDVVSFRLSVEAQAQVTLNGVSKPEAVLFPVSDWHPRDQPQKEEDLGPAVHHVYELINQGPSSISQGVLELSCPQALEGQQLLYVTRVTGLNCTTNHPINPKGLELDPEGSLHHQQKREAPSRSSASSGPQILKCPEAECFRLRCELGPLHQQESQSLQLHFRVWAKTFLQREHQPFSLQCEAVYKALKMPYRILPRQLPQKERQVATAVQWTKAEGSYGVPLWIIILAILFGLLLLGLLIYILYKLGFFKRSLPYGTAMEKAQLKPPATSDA
Sequence of α5β1 (P05556 21-798): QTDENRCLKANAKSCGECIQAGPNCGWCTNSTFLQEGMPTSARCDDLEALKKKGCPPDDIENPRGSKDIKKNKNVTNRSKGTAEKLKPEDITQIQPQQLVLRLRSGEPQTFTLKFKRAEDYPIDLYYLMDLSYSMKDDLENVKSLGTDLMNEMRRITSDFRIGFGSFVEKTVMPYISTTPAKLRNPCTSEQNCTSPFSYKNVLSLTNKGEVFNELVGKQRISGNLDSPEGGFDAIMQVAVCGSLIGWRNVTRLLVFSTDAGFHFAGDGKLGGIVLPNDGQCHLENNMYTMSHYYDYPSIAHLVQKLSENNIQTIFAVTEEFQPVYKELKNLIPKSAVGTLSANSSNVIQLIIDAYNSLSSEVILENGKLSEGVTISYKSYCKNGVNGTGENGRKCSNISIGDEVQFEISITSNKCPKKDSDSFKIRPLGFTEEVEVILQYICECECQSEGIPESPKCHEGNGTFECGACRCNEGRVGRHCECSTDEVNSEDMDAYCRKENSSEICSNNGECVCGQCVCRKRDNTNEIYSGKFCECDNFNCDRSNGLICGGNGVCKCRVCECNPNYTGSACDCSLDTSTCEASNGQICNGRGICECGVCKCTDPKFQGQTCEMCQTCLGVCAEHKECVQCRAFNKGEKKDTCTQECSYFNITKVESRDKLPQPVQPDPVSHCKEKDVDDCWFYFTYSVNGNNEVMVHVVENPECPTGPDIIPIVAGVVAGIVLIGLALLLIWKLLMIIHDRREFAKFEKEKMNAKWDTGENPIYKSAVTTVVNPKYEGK

T2 sequence (P02702 20-234): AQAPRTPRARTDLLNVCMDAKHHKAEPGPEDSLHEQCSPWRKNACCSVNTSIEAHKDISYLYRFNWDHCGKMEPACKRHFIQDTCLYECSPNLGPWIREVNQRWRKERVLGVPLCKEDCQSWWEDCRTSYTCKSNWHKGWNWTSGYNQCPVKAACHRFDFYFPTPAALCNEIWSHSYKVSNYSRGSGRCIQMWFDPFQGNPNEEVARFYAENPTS
Sequence of αvβ5 (P06756 31-1048): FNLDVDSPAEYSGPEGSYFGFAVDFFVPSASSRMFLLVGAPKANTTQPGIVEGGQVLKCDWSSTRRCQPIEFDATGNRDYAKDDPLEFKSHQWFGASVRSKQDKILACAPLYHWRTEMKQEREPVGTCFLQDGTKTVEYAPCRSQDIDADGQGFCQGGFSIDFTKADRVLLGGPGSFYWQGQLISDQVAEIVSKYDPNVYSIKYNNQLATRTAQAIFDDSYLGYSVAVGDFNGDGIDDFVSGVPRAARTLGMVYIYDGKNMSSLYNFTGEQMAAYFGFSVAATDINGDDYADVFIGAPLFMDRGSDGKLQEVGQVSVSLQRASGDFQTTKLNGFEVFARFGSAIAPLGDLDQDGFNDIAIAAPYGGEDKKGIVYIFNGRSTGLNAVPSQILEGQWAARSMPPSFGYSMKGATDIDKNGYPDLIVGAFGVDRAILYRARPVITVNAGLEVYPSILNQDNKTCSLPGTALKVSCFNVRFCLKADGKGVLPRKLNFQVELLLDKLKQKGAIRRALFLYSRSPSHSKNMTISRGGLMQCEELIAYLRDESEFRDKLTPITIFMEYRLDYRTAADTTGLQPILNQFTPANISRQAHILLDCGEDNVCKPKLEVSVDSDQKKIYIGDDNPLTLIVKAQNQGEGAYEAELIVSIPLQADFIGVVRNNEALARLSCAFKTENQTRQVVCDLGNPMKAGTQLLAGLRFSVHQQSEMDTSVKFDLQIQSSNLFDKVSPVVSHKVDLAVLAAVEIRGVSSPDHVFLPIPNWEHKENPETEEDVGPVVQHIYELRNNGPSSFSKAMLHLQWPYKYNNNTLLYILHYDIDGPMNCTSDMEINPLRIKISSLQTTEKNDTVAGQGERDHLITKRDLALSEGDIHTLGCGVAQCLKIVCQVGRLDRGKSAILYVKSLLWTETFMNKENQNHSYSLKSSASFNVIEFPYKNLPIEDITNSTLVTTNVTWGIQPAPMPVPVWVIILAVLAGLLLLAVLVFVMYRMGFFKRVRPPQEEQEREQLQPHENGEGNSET
Sequence of αvβ5 (P18084 24-799): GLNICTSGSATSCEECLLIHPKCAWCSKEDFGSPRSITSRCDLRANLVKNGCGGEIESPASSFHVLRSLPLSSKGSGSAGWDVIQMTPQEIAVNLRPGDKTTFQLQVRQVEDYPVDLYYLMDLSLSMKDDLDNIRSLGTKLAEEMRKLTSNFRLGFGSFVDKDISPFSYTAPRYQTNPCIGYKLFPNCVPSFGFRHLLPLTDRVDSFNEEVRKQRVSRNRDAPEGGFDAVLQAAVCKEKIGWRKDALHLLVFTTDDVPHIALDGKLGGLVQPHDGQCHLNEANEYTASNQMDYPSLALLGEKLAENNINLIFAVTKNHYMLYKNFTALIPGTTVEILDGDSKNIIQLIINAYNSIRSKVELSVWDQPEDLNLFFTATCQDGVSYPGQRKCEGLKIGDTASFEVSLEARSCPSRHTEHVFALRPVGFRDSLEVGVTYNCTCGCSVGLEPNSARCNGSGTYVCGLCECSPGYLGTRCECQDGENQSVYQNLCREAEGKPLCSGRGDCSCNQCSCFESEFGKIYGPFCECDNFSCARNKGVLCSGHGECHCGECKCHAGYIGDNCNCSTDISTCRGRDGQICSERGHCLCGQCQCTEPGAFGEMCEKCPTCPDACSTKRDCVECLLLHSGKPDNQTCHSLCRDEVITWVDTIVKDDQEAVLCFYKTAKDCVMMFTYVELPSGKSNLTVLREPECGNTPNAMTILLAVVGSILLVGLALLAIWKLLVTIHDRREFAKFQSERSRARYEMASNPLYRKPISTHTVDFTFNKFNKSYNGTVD
T1 sequence (P08254 100-477): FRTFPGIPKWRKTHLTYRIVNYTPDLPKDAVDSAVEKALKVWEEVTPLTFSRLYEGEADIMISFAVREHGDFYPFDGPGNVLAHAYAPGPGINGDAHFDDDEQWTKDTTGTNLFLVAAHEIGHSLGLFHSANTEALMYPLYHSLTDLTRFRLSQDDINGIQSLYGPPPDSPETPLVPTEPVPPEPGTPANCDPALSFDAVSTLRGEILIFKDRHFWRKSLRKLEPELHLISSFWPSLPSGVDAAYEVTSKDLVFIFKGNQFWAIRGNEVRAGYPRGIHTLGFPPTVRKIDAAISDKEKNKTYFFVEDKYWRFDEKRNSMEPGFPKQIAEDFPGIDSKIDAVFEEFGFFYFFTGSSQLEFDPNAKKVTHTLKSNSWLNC

Question: With `CNC(=O)[C@H](Cc1c[nH]c2ccccc12)NC(=O)[C@@H](CC(=O)NO)CC(C)C` [Ilomastat] as the molecule, how does the IC50 (human MMP-3) read?
Answer: Its IC50 is 0.13 µM.

Question: With `Nc1nc2ncc(CNc3ccc(C(=O)N[C@@H](CCC(=O)O)C(=O)O)cc3)nc2c(=O)[nH]1` [Folic acid] as the molecule, how does the kon ([1]; flow 25 μl/min, read-out: Association rate ka) read?
Answer: Its kon is 1000 M⁻¹ s⁻¹.

Question: And the koff ([1]; flow 25 μl/min, read-out: Dissociation rate kd)?
Answer: Its koff is 0.0016 s⁻¹.

Question: What about the Kd ([1]; read-out: Affinity constant KD) of the same molecule?
Answer: The Kd was 1.6 µM.

Question: Which “blocking of other integrins” value (αvβ5) does the source give for cyclo(ARGD-Mamb) [XJ735] here?
Answer: Its value is “does not block”.

Question: And the “blocking of other integrins” value (α5β1)?
Answer: The value was “does not block”.
